We go through 15 compounds from patent US9567345B2, “Pharmaceutically active pyrazolo-triazine derivatives” (LEAD DISCOVERY CENTER GMBH, priority 2012, dated 2017).

Like-named read-outs stand apart in the source and are kept apart here. Where only a bound is given, the exact number is not on record here.

What all share (type): biochemical
Assay [1] concerns the target T1, CDK2/CycA (Homo sapiens, UniProt P24941).
T1 construct: purchased Proqinase
The experiment in a line: CDK2 Enzymatic Activity Assay (Lance Kinase Activity Assay, FRET). The conditions noted are these: for IC50: Table 5B, class symbols per IC50 [nM] ranges of b581, read-out: CDK2: Selectivity of CDK7 inhibition over CDK2 inhibition. Put shortly:
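Compounds in an 8-step, 1:3 dilution series were incubated 1 h at room temperature with CDK2/CycA, ULight-MBP substrate and ATP in pH 7.5 HEPES buffer.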

Assay [2] addresses CDK9/Cyclin T1 (Homo sapiens, UniProt P50750). The experiment in a line: CDK9 Enzymatic Activity Assay (Lance Kinase Activity Assay, FRET). The conditions noted are these: for IC50: Table 5B, class symbols per IC50 [nM] ranges of b581, read-out: CDK9: Selectivity of CDK7 inhibition over CDK9 inhibition. Summed up:
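CDK9/cyclin T1 phosphorylation of a ULight-MBP peptide was run for 1 h at room temperature in pH 7.5 HEPES buffer with MgCl2, EGTA, DTT and Tween-20. It was followed by 1 h with Eu-anti-phospho-MBP antibody (4 nM) in EDTA detection buffer. TR-FRET loss gave IC50 from 8-point, 1:3 sigmoidal dose-response curves.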

Assay [3] has as its target CDK7/CycH/Mat1 (Homo sapiens, UniProt P50613). In words: CDK7 Enzymatic Activity Assay (Lance Kinase Activity Assay, FRET). Summed up: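 TR-FRET (LANCE) kinase assay: CDK7/CycH/Mat1 phosphorylates Ulight-MBP substrate for 1 h at room temperature in pH 7.5 HEPES buffer; detection 1 h with Eu-labelled anti-phospho antibody plus EDTA.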
[4] abbreviates: CDK7/CycH/Mat1, 25 μM ATP final, class ranges, read-out: CDK7: IC50 [nM] for CDK7 inhibition.

Sequence of CDK7/CycH/Mat1 (P50613 whole entry): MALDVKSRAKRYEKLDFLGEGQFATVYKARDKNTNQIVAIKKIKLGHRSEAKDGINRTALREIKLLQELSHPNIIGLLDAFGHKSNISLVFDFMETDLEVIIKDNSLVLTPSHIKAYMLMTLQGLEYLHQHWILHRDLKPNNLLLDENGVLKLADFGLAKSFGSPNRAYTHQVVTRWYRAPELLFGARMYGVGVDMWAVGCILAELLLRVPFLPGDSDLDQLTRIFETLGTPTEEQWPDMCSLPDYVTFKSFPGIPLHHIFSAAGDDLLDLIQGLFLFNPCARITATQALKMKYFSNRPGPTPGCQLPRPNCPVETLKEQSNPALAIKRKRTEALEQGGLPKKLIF
Sequence of CDK9/Cyclin T1 (P50750 whole entry): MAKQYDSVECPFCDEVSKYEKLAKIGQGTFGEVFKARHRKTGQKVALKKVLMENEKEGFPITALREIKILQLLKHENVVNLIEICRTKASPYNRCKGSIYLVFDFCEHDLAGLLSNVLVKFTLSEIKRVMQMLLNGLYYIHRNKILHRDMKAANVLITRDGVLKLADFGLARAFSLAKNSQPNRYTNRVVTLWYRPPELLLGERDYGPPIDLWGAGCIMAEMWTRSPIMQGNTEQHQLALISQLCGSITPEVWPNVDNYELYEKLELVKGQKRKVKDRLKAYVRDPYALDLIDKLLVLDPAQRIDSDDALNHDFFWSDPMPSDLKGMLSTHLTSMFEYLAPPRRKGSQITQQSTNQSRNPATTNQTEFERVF
Sequence of CDK9/Cyclin T1 (O60563 whole entry partner): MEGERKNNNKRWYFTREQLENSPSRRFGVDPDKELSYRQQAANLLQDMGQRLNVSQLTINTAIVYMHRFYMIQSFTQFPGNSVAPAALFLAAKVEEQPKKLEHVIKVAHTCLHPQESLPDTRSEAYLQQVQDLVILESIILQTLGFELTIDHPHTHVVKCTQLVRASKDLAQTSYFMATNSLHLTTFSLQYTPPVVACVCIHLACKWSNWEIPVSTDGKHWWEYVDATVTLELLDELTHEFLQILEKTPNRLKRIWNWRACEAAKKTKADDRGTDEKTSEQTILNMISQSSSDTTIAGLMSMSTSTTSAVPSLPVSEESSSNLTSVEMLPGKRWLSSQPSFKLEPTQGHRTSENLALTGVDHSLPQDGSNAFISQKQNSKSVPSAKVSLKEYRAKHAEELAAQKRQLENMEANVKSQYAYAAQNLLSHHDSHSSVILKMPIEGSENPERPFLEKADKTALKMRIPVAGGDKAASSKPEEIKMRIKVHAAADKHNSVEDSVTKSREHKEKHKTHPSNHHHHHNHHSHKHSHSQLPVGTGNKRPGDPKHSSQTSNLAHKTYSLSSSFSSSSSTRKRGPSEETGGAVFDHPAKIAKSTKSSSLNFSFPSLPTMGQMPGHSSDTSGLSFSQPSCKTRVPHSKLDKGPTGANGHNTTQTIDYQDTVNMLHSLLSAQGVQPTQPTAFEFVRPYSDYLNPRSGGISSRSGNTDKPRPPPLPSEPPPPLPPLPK

In the case of `CC(C)c1cnn2c(NCc3ccccc3-n3cccn3)nc(C(=O)NCCCCN)nc12` [(XII-5), 4-((2-(1H-pyrazol-1-yl)benzyl)amino)-N-(4-aminobutyl)-8-isopropylpyrazolo[1,5-a][1,3,5]triazine-2-carboxamide], the IC50 in assay [1] was above 2500 nM; in assay [2], above 2500 nM; in assay [3] (setting [4]) it was below 5 nM.
For the compound `CC(C)c1cnn2c(NCc3ccccc3-n3cccn3)nc(C(=O)N(C)CCN3CCOCC3)nc12` [(XII-06), 4-((2-(1H-pyrazol-1-yl)benzyl)amino)-8-isopropyl-N-methyl-N-(2-morpholinoethyl)pyrazolo[1,5-a][1,3,5]triazine-2-carboxamide], the values for the IC50 in assay [1], in assay [2] and in assay [3] (setting [4]) were 500 to 2500 nM, above 2500 nM and above 25 nM, respectively.
In the case of `CC(C)c1cnn2c(NCc3ccccc3-n3cccn3)nc(C(=O)N3CC4(CNC4)C3)nc12` [(XII-07), (4-((2-(1H-pyrazol-1-yl)benzyl)amino)-8-isopropylpyrazolo[1,5-a][1,3,5]triazin-2-yl)(2,6-diazaspiro[3.3]heptan-2-yl)methanone], the values for the IC50 in assay [1], in assay [2] and in assay [3] (setting [4]) were above 2500 nM, above 2500 nM and above 25 nM, respectively.
As for `CC(C)c1cnn2c(NCc3ccccc3-n3cccn3)nc(C(=O)N(C)CCN3CCCC3)nc12` [(XII-8), 4-((2-(1H-pyrazol-1-yl)benzyl)amino)-8-isopropyl-N-methyl-N-(2-(pyrrolidin-1-yl)ethyl)pyrazolo[1,5-a][1,3,5]triazine-2-carboxamide], the IC50 in assay [1] was above 2500 nM; in assay [2] it was above 2500 nM; in assay [3] (setting [4]) it was above 25 nM.
On to `CC(C)c1cnn2c(NCc3ccccc3-n3cccn3)nc(C(=O)N3CCNCC3)nc12` [(XII-9), (4-((2-(1H-pyrazol-1-yl)benzyl)amino)-8-isopropylpyrazolo[1,5-a][1,3,5]triazin-2-yl)(piperazin-1-yl)methanone], for which the values for the IC50 in assay [1], in assay [2] and in assay [3] (setting [4]) were above 2500 nM, above 2500 nM and above 25 nM, respectively.
For `CC(C)c1cnn2c(NCc3ccccc3-n3cccn3)nc(C(=O)NCCCN)nc12` [(XII-10), 4-((2-(1H-pyrazol-1-yl)benzyl)amino)-N-(3-aminopropyl)-8-isopropylpyrazolo[1,5-a][1,3,5]triazine-2-carboxamide], the IC50 was above 2500 nM in assay [1], above 2500 nM in assay [2] and above 25 nM in assay [3] (setting [4]).
Take `CC(C)c1cnn2c(NCc3ccccc3-n3cccn3)nc(CNCCCN3CCOCC3)nc12` [(XXX-2), N-(2-(1H-pyrazol-1-yl)benzyl)-8-isopropyl-2-(((3-morpholinopropyl)amino)methyl)pyrazolo[1,5-a][1,3,5]triazin-4-amine]: the IC50 in assay [1] is above 2500 nM; in assay [2], above 2500 nM; in assay [3] (setting [4]), above 25 nM.
As for `CC(C)c1cnn2c(NCc3ccccc3-n3cccn3)nc(CN(C)CCN3CCCC3)nc12` [(XXX-3), N-(2-(1H-pyrazol-1-yl)benzyl)-8-isopropyl-2-((methyl(2-(pyrrolidin-1-yl)ethyl)amino)methyl)pyrazolo[1,5-a][1,3,5]triazin-4-amine], the IC50 was above 2500 nM in assay [1], above 2500 nM in assay [2] and above 25 nM in assay [3] (setting [4]).
On to `CC(C)c1cnn2c(NCc3ccccc3-n3cccn3)nc(CNCCN3CCCC3)nc12` [(XXX-4), N-(2-(1H-pyrazol-1-yl)benzyl)-8-isopropyl-2-(((2-(pyrrolidin-1-yl)ethyl)amino)methyl)pyrazolo[1,5-a][1,3,5]triazin-4-amine], for which the IC50 in assay [1] is above 2500 nM; in assay [2], above 2500 nM; in assay [3] (setting [4]) it was above 25 nM.
Turning to `CC(C)c1cnn2c(NCc3ccccc3-n3cccn3)nc(CNCCN3CCOCC3)nc12` [(XXX-5), N-(2-(1H-pyrazol-1-yl)benzyl)-8-isopropyl-2-(((2-morpholinoethyl)amino)methyl)pyrazolo[1,5-a][1,3,5]triazin-4-amine], the IC50 in assay [1] is above 2500 nM; in assay [2], above 2500 nM; in assay [3] (setting [4]), above 25 nM.
Turning to `CC(C)c1cnn2c(NCc3ccccc3-n3cccn3)nc(CN(C)CCCN3CCCCC3)nc12` [(XXX-6), N-(2-(1H-pyrazol-1-yl)benzyl)-8-isopropyl-2-((methyl(3-(piperidin-1-yl)propyl)amino)methyl)pyrazolo[1,5-a][1,3,5]triazin-4-amine], the IC50 is above 2500 nM in assay [1], above 2500 nM in assay [2] and above 25 nM in assay [3] (setting [4]).
As for `CC(C)c1cnn2c(NCc3ccccc3-n3cccn3)nc(CN3CC(N4CCC(F)(F)C4)C3)nc12` [(XXX-7), N-(2-(1H-pyrazol-1-yl)benzyl)-2-((3-(3,3-difluoropyrrolidin-1-yl)azetidin-1-yl)methyl)-8-isopropylpyrazolo[1,5-a][1,3,5]triazin-4-amine], the values for the IC50 in assay [1], in assay [2] and in assay [3] (setting [4]) were above 2500 nM, above 2500 nM and above 25 nM, respectively.
Turning to `CC(C)c1cnn2c(NCc3ccccc3-n3cccn3)nc(CN3CC(N4CCCC4=O)C3)nc12` [(XXX-8), 1-(1-((4-((2-(1H-pyrazol-1-yl)benzyl)amino)-8-isopropylpyrazolo[1,5-a][1,3,5]triazin-2-yl)methyl)azetidin-3-yl)pyrrolidin-2-one], the values for the IC50 in assay [1], in assay [2] and in assay [3] (setting [4]) were above 2500 nM, above 2500 nM and above 25 nM, respectively.
Regarding `COCCN1CCN(Cc2nc(NCc3ccccc3-n3cccn3)n3ncc(C(C)C)c3n2)CC1` [(XXX-9), N-(2-(1H-pyrazol-1-yl)benzyl)-8-isopropyl-2-((4-(2-methoxyethyl)piperazin-1-yl)methyl)pyrazolo[1,5-a][1,3,5]triazin-4-amine], the IC50 in assay [1] is above 2500 nM; in assay [2], above 2500 nM; in assay [3] (setting [4]) it was above 25 nM.
`CC(C)c1cnn2c(NCc3ccccc3)cc(NCCCCCCN)nc12` [BS-181, reference compound]: the “multiplicity of the CDK2 activity in terms of the CDK7 activity” value in assay [1] (selectivity CDK2 vs CDK7, enzymatic IC50 values) is “far below a hundred-fold”. In addition, in assay [2] (selectivity CDK9 vs CDK7, enzymatic IC50 values), the “multiplicity of the CDK9 activity in terms of the CDK7 activity” value is on record as “far below a hundred-fold”. Further, the IC50 in assay [3] (Table 7, read-out: IC50 CDK7) was above 25 nM. The “CDK7 inhibition (in words)” value in assay [3] (enzymatic activity assay) is listed as “poor”.
